Assay: in vivo
Conditions: sheep, sc
Protocol: Sheep (approximately 100 kg) were housed at SUNY Stony Brook Health Sciences Center. Animals were anesthetized with acepromazine/thiopental sodium. A suspense of diketopiperazine microparticle/sCT (10.04 mg/mL in 0.9% saline) was instilled in each lung of each sheep. A solution of sCT (10 mg/mL in 0.9% saline) was administered by subcutaneous injection to control animals. An intravenous catheter was placed in the cephalic vein of each anesthetized animal for blood sampling.
The following dosing solutions were prepared on the day of the experiment. The volume of the dose delivered was calculated based on the actual weight of the animal as described below.
Blood samples were drawn at the following time points: −5, 0 (predose), 1, 3, 5, 10, 15, 30, 45, 60, 90 minutes, 2, 4, and 6 hours. […]
Plasma sCT concentration was determined using radioimmunoassay (Research and Diagnostic Antibodies, Berkeley, Calif., catalog #K-1235).
The pharmacokinetics of sCT in sheep was determined after lung instillation of a formulation of sCT in diketopiperazine microparticle (2.47% by weight sCT) at a sCT dose of 100 μg/kg. […]
The truncated AUC (0 to 6 hours) was calculated for each animal using the trapezoidal rule. The bioavailability (F %) for each animal was calculated from the ration of the AUCs for the pulmonary and subcutaneous administrations.

Tmax: 2 h
AUC(0-t) (100 ug/kg): 38.8 ng·h/mL
Compound: CC(C)C[C@H](NC(=O)[C@H](CCCCN)NC(=O)CNC(=O)[C@H](CC(C)C)NC(=O)[C@@H](NC(=O)[C@@H]1CSSC[C@H](N)C(=O)N[C@@H](CO)C(=O)N[C@@H](CC(N)=O)C(=O)N[C@@H](CC(C)C)C(=O)N[C@@H](CO)C(=O)N[C@@H]([C@@H](C)O)C(=O)N1)C(C)C)C(=O)N[C@@H](CO)C(=O)N[C@@H](CCC(N)=O)C(=O)N[C@@H](CCC(=O)O)C(=O)N[C@@H](CC(C)C)C(=O)N[C@@H](Cc1c[nH]cn1)C(=O)N[C@@H](CCCCN)C(=O)N[C@@H](CC(C)C)C(=O)N[C@@H](CCC(N)=O)C(=O)N[C@H](C(=O)N[C@@H](Cc1ccc(O)cc1)C(=O)N1CCC[C@H]1C(=O)N[C@@H](CCCNC(=N)N)C(=O)N[C@H](C(=O)N[C@@H](CC(N)=O)C(=O)N[C@H](C(=O)NCC(=O)N[C@@H](CO)C(=O)NCC(=O)N[C@H](C(=O)N1CCC[C@H]1C(N)=O)[C@@H](C)O)[C@@H](C)O)[C@@H](C)O)[C@@H](C)O [sCT, salmon calcitonin]
